These are literature values, as cited in PMC12390126, “Human Skin Permeation of Ethoxy- and Propoxypropanol Commonly Found in Water-Based Products” (Toxics, 2025).

Like-named read-outs stand apart in the source and are kept apart here.

The conditions of series [1]: frozen full thickness skin, 32 °C, 4 h, cited from earlier work; for J ± SD / Kp ± SD: 56.1-61.7 mg/cm^2.
The conditions of series [2]: dermatomed 0.8 mm, 32 °C, 24 h, cited from earlier work; for J ± SD / Kp ± SD: 109.6 (PGME) or 100.0 (PGBE) mg/cm^2.
On the set-up of series [3]: method as in PMID 15251185. Conditions: frozen full thickness skin (1 mm), 32 °C, 57.8 mg/cm^2, 8 h; cited from earlier work.

As for `CCCCOCC(C)O` (stereo not drawn) [PGBE, propylene glycol butyl ether], in series [1], the “J ± SD” value is 17 ± 5 µg/cm^2/h, the “Kp ± SD” value is given as 0.02 ± 0.005 10^−3 cm/h and the “Tlag ± SD” value is on record as 0.62 ± 0.03 h. Besides, in series [2] (fresh skin), the “J ± SD” value is given as 7.93 ± 1.57 µg/cm^2/h, the “Kp ± SD” value was 0.009 ± 0.002 10^−3 cm/h and the “Tlag ± SD” value was 0.89 ± 0.13 h. Besides, in series [2] (frozen skin), the “J ± SD” value is 44.1 ± 16.2 µg/cm^2/h, the “Kp ± SD” value is 0.05 ± 0.02 10^−3 cm/h and the “Tlag ± SD” value is reported as 0.86 ± 0.23 h.

`COCC(C)OC(C)=O` (stereo not drawn) [PGMEac, propylene glycol methyl ether acetate]: in series [1], the “J ± SD” value is listed as 59 ± 44 µg/cm^2/h, the “Kp ± SD” value is recorded as 0.06 ± 0.006 10^−3 cm/h and the “Tlag ± SD” value is listed as 0.5 ± 0.05 h.

For dipropylene glycol methyl ether [DPGME], in series [3], the “J ± SD” value is on record as 106.3 ± 37.6 µg/cm^2/h, the “Kp ± SD” value was 0.11 ± 0.04 10^−3 cm/h and the “Tlag ± SD” value was 1.51 ± 0.48 h.
